Each structure is given as a SMILES string. Marks after values point to notes of the source that are not given here.

The conditions of data set [1]: 5 µM.
Protocol: (§1) 1 mM stock solutions of the test compounds were prepared in DMSO, and a 1 mM stock solution of the reference compound propantheline was prepared in acetonitrile.
(§2) 4 µL of test compound stock solution (or reference compound stock solution) was added to 796 µL of pre-incubated whole blood (CD-1 mouse whole blood or human whole blood) at a final concentration of 5 µM. The final concentration of the solvent was 0.5%. At different time points (including 5 min, 15 min, 30 min, 60 min, and 120 min), a 50 µL aliquot of the whole blood containing the sample was added to a new tube and incubated in a 37 °C water bath with shaking at 60 rpm. The treatment was performed in duplicate. At designated time points, 300 µL of room-temperature quenching solution (a solution of acetonitrile containing internal standards (100 nM alprazolam, 500 nM labetalol, and 2 µM ketoprofen)) was added to the whole blood sample containing the sample to terminate the reaction. 50 µL of whole blood containing the sample was added to a new tube containing 300 µL of room-temperature quenching solution to prepare a sample at 0 min. All samples were vortexed for 5 min. The samples in the plate were centrifuged at 3220 g for 30 min at 4 °C to precipitate the proteins. 100 µL of the supernatant was transferred to a new 96-well plate containing 100 µL of water for LC-MS/MS analysis.
(§3) The peak area ratio was determined by using an extracted ion chromatogram. The proportion of remaining compound at each time point was calculated according to the following formula: Remaining proportion t min (%) = peak area ratio t min / peak area ratio 0 min × 100% [formula] • Peak area ratio t min: peak area ratio of reference compound to test compound at t min; • Peak area ratio 0 min: peak area ratio of reference compound to test compound at time zero.
(§4) The slope value was determined by linear regression on the curve of the natural logarithm of the remaining proportion of the test compound versus the incubation time.
(§5) Determination of in vitro half-life (in vitro t1/2) from the slope value: in vitro t1/2 = 0.693/k [formula] in the formula, k is the rate constant (k = -slope value)
For data set [2] the following is noted: mouse, in vivo.
Description: Treatment: On day 3 after shaving, the mice were grouped for treatment. […] The control group received the vehicle. 12 mice were in each group.
The next data set deals with C57BL/6 mice. Briefly: In vivo pharmacodynamic study: hair growth scoring in shaved telogen-phase mice. To be noted: for Score (mean±SD): hair growth score 0-5, 0.5 wt% applied to shaved area twice daily. An excerpt:
Vehicle: propylene glycol/ethanol (30:70, v/v)
Animal information: C57BL/6 mice (male, aged 6 weeks, about 18-20 g), purchased from Shanghai Lingchang Biotechnology Co., Ltd. The mice were bred in an SPF-level environment within independently ventilated cages. All animals had free access to a certified, commercial standard laboratory diet and drinking water.
Skin preparation: After 1-2 weeks of acclimation, the hairs in a 2 cm × 3 cm area of the back of the mice were shaved to confirm that the hairs of the mice were in the telogen phase (the skin was pink) and the skin was not damaged.
The control group received the vehicle. 12 mice were in each group.
The scoring criteria are as follows: • 0: no growth, with pink skin in the shaved area; • 1: the skin in the shaved area was gray (an increase of less than 20%); • 2: the skin in the shaved area was black (more than 20% but less than 40%); • 3: the skin in the shaved area was black with a little hair growth (more than 40% but less than 60%); • 4: the skin in the shaved area was black with partial hair growth (more than 60% but less than 80%); • 5: basically complete hair growth (80%-100% growth) in the shaved area.

The conditions of data set [3]: human, microsomes, 1 µM, pH 7.4.
Protocol: The metabolic stability of compounds disclosed herein in liver microsomes was determined using the following method.
Liver microsome source: Human liver microsome (Corning, 452117) • 2. Na2HPO4 (Tianjin Guangfu Fine Chemical Research Institute, 20180130) • 3. KH2PO4 (Tianjin Guangfu Fine Chemical Research Institute, 20180920) • 4. MgCl2 (Tianjin Guangfu Fine Chemical Research Institute, 20191216) • 5. NADPH (Solarbio, 1216C022) • 6. Positive control compound: verapamil (Sigma, MKBV4993V) • 7. AB Sciex Triple Quad 4000 liquid chromatography-mass spectrometry system
Preparation of 100 mM phosphate-buffered saline (PBS): 7.098 g Na2HPO4 was dissolved in 500 mL of purified water by sonication to give solution A. 3.400 g of KH2PO4 was dissolved in 250 mL of purified water by sonication to give solution B. Solution A was placed on a stirrer, and solution B was added slowly until the pH reached 7.4, so as to give a 100 mM PBS buffer. […] Preparation of reaction system The reaction system was prepared according to the table below.
The reaction system was pre-incubated in a 37 °C water bath for 10 min. 40 µL of 10 mM NADPH solution (in 100 mM phosphate-buffered saline) was added to the reaction system, with the final NADPH concentration being 1 mM. A negative control was prepared by replacing the NADPH solution with 40 µL of phosphate-buffered saline. The negative control was used to exclude the effect of the chemical stability of the compound itself. […] The reaction was initiated by adding 4 µL of 100 µM compound disclosed herein or positive control compound verapamil to the reaction system at a final concentration of 1 µM. […] After 0.5 min, 15 min, 30 min, 45 min, and 60 min of mixing well by using a vortex oscillator, 50 µ L of the incubated sample was taken out, and glacial acetonitrile containing an internal standard of 4 folds was added to terminate the reaction. The sample was centrifuged at 3,220 g for 45 min. 90 µL of the supernatant was transferred to a feeding plate after the centrifugation was completed, and 90 µL ultrapure water was added. The mixture was well mixed for LC-MS/MS analysis.
All data were calculated by using Microsoft Excel software. The peak areas were determined by using an extracted ion chromatogram. The in vitro half-life (T1/2) of the test compound was determined by linear fitting of the natural logarithm of the elimination proportion of the test compound over time. In vitro half-life (T1/2) was calculated by the slope k: in vitro T1/2 = 0.693/k [formula]
The in vitro intrinsic clearance (in vitro CLint, unit: µL/min/mg protein) was calculated using the following formula: in vitro CLint = k × volume of incubation solution/enzyme protein content; [formula]
The conditions of data set [4]: 5 µM. The source holds these as a separate data set.
Protocol: as §1, §2, §3, §4, §5
The test system of a further data set is AR. Put plainly: AR antagonistic activity: AR / PSA ARE1 luciferase reporter gene assay in transfected LNCaP cells stimulated with 1 nM DHT. Format: cell-based. To be noted: 24 h, 6.7 µM. The method, then:
LNCaP cells were plated in a 6-well plate (Corning, 3516) at 8 × 10^5 cells/well.
Transfection reagents Lipo 3000 and P3000 (Lipofectamine™ 3000) and AR and PSA ARE1 reporter gene plasmids (Bio (Anhui) Co., Ltd.) (a total of 2.5 µg of plasmids, i.e., 1.25 µg of each plasmid, were added to each well) were left to stand and incubated at room temperature for 10 min, and then 250 µL of the above transfection reagents were added dropwise to each well containing cells.
The cells were washed with PBS, and the medium was replaced with a phenol red-free RPMI-1640 medium containing 5% carbon adsorption serum. The cells were re-plated onto a 96-well plate (Corning, 3603) according to the number of cells plated (2 × 10^4 cells/well).
After cell plating, the test compound (or DMSO or positive control) was added. After at least 30 min of incubation (incubator, 37 °C, 5% CO2), DHT (dihydrotestosterone) was added to the culture system at a final concentration of 1 nM. The culture system was then incubated in a carbon dioxide incubator. The final volume of the system in the plate was 100 µL.
Test compound: 10 mM stock solution, with a final concentration of 3.3 µM or 6.7 µM. Negative control: 0.1% DMSO. Positive control: 30 µM enzalutamide.
After the test compound (or DMSO or positive control) and DHT were co-incubated for 6 or 24 h, the luciferase signal was detected using the Vazyme Bright-Lite substrate. The medium was added at 70 µL/well, and the plate was shaken for 2 min, followed by reading of the luciferase signal.
Assay robustness was confirmed using the DMSO and low concentration control data: Ave_H = Ave (DMSO) [formula] Ave_L = Ave (30000nMenzalutamide) [formula] Inhibition rate (%) = (Ave_H−Sample)/(Ave_H−Ave_L) × 100% [formula] • Ave_H: the measurement of the negative control (0.1% DMSO); • Ave_L: the measurement of the positive control (30 µM enzalutamide); • Sample: the measurement of the test compound;
(Reporter assays use an easily measured gene product as a stand-in for the process of interest.)

Regarding `CC(C)OC(=O)CCCC(C)(O)C(=O)Nc1cnc(C#N)c(C(F)(F)F)c1` (single isomer, unassigned) [Compound 010], the “Half-life T 1/2 in CD-1 mouse whole blood” value in data set [1] is 5.97 min. For the same compound, in data set [2], the “signs of erythema, dehiscence, desquamation on the skin” value was “no signs of erythema, dehiscence, desquamation”. Besides, the “Score (mean±SD)” value in the data set with C57BL/6 mice (Day 0) is on record as 0; in the data set on C57BL/6 mice (Day 10) it was 0.2±0.4; in the data set with C57BL/6 mice (Day 13), 0.2±0.4; in the data set with C57BL/6 mice (Day 16), 0.3±0.5; with C57BL/6 mice (Day 20) it was 0.7±0.7; with C57BL/6 mice (Day 23), 0.8±0.6. Moreover, the “Score (mean±SD)” value in the data set with C57BL/6 mice (Day 27) is reported as 1.1±0.7; in the data set with C57BL/6 mice (Day 32, ** P < 0.01 vs. vehicle control group) it was 1.9±0.7**. Further, in the data set with C57BL/6 mice (mice with telogen hair growth, 0.5 wt%, BID topically at 20 µL/cm^2, P < 0.01 from day 32), the “effect on hair growth” value is given as “significant promoting effect on hair growth”. Also, in data set [3], the “In vitro Clint” value turned out to be 124.8 µL/min/mg protein. Further, the “In vitro T1/2” value in data set [3] is 11.1 min. Also, the “Half-life T 1/2 in human whole blood” value in data set [4] is listed as 351.20 min. For the same compound, the “AR antagonism (inhibition rate, %)” value with AR was 85.37^c %.

The values above are taken from EP4786452A1, “AMIDE COMPOUNDS” (China Pharmaceutical University, priority 2023, dated 2025).
